Values of other authors in patent US9540691B2, “Assays and methods for selecting a treatment regimen for a subject with depression” (THE GENERAL HOSPITAL CORPORATION, priority 2011, dated 2017).
Like-named read-outs stand apart in the source and are kept apart here.

Tested on: adults with DSM-IV MDD, partial or nonresponse to an SSRI
Conditions: cited from earlier work

## Nc1nc(=O)c2c([nH]1)NCC(CNc1ccc(C(=O)N[C@@H](CCC(=O)O)C(=O)O)cc1)N2C=O (mixture of isomers) [Folinic acid]
16 completers, decreased from 19.1+/−3.9, p<0.01
  HAM-D-17 score after treatment: 12.8+/−7.0
ITT sample
  remission (HAM-D-17 no greater than 7): 18%
completers
  remission (HAM-D-17 no greater than 7): 19%
  response (at least 50% reduction in HAM-D-17): 31%
Folinic acid 15-30 mg/day added to SSRIs, 8 weeks, rose from 28+/−19, p<0.001
  Folate levels after treatment: 301 ± 203 ng/mL
intent-to-treat (ITT) sample
  response (at least 50% reduction in HAM-D-17): 27%
